In paper PMC6759796, “Integrating Pharmacokinetics Study, Network Analysis, and Experimental Validation to Uncover the Mechanism of Qiliqiangxin Capsule Against Chronic Heart Failure” (Frontiers in Pharmacology, 2019):

assay: not given; parameters: unit not given beside the values; conditions: rat, in vivo, po

Compound | AUC0∼t | AUC0∼∞
COc1ccc(-c2coc3cc(O[C@@H]4O[C@H](CO)[C@@H](O)[C@H](O)[C@H]4O)ccc3c2=O)cc1O [Calycosin-7-glucoside] | 103.26 ± 47.63 | 120.71 ± 50.71
O=C(O)[C@H](O)Cc1ccc(O)c(O)c1 [Danshensu] | 290.92 ± 68.38 | 390.90 ± 66.50
CC(C)=CCC[C@](C)(O)[C@H]1CC[C@]2(C)[C@@H]1[C@H](O)C[C@@H]1[C@@]3(C)CC[C@H](O[C@@H]4O[C@H](CO)[C@@H](O)[C@H](O)[C@H]4O[C@@H]4O[C@H](CO)[C@@H](O)[C@H](O)[C@H]4O)C(C)(C)[C@@H]3CC[C@]12C [Ginsenoside Rg3] | 67.13 ± 27.93 | 89.81 ± 34.43
COc1ccc([C@@H]2CC(=O)c3c(O)cc(O[C@@H]4O[C@H](CO[C@@H]5O[C@@H](C)[C@H](O)[C@@H](O)[C@H]5O)[C@@H](O)[C@H](O)[C@H]4O)cc3O2)cc1O [Hesperidin] | 154.32 ± 66.50 | 187.77 ± 34.98
COc1cc(/C=C/C(=O)OCC[N+](C)(C)C)cc(OC)c1O.O=S(=O)([O-])O [Sinapine bisulfate] | 3.98 ± 1.21 | 8.76 ± 2.85
Salvianolic acid B | 818.47 ± 249.00 | 980.47 ± 112.07

assay: Pharmacokinetics of 29 QLQX components in rat plasma by HPLC-MS/MS after intragastric QLQX; conditions: Sprague-Dawley, rat, in vivo, po, […]

Compound | Tmax [h] | half-life [h]
CCN1C[C@]2(COC)[C@H](O)C[C@H](OC)[C@@]34[C@@H]5C[C@@]6(O)[C@H](OC(=O)c7ccccc7)[C@@H]5[C@@](OC(C)=O)([C@@H]([C@H](OC)[C@H]23)[C@@H]14)[C@@H](O)[C@@H]6OC [Aconitine] | 0.33 | 18.4 ± 5.44

same assay, conditions: Sprague-Dawley, rat, plasma, po, […]

Compound | Tmax [h] | half-life [h]
COc1ccc(-c2coc3cc(O)ccc3c2=O)cc1 [Formononetin] | 0.17 | 5.07 ± 2.13
CC(C)=CCC[C@](C)(O[C@@H]1O[C@H](CO[C@@H]2O[C@H](CO)[C@@H](O)[C@H](O)[C@H]2O)[C@@H](O)[C@H](O)[C@H]1O)[C@H]1CC[C@]2(C)[C@@H]1[C@H](O)C[C@@H]1[C@@]3(C)CC[C@H](O[C@@H]4O[C@H](CO)[C@@H](O)[C@H](O)[C@H]4O[C@@H]4O[C@H](CO)[C@@H](O)[C@H](O)[C@H]4O)C(C)(C)[C@@H]3CC[C@]12C [Ginsenoside Rb1] | 0.67 | 9.16 ± 3.18
CC(C)=CCC[C@](C)(O[C@@H]1O[C@H](CO[C@@H]2OC[C@H](O)[C@H](O)[C@H]2O)[C@@H](O)[C@H](O)[C@H]1O)[C@H]1CC[C@]2(C)[C@@H]1[C@H](O)C[C@@H]1[C@@]3(C)CC[C@H](O[C@@H]4O[C@H](CO)[C@@H](O)[C@H](O)[C@H]4O[C@@H]4O[C@H](CO)[C@@H](O)[C@H](O)[C@H]4O)C(C)(C)[C@@H]3CC[C@]12C [Ginsenoside Rb2] | 1.5 ± 0.06 | 10.1 ± 4.53
CC(C)=CCC[C@](C)(O[C@@H]1O[C@H](CO[C@@H]2O[C@@H](CO)[C@H](O)[C@H]2O)[C@@H](O)[C@H](O)[C@H]1O)[C@H]1CC[C@]2(C)[C@@H]1[C@H](O)C[C@@H]1[C@@]3(C)CC[C@H](O[C@@H]4O[C@H](CO)[C@@H](O)[C@H](O)[C@H]4O[C@@H]4O[C@H](CO)[C@@H](O)[C@H](O)[C@H]4O)C(C)(C)[C@@H]3CC[C@]12C [Ginsenoside Rc] | 0.67 | 4.32 ± 2.1
CC(C)=CCC[C@](C)(O[C@@H]1O[C@H](CO)[C@@H](O)[C@H](O)[C@H]1O)[C@H]1CC[C@]2(C)[C@@H]1[C@H](O)C[C@@H]1[C@@]3(C)CC[C@H](O[C@@H]4O[C@H](CO)[C@@H](O)[C@H](O)[C@H]4O[C@@H]4O[C@H](CO)[C@@H](O)[C@H](O)[C@H]4O)C(C)(C)[C@@H]3CC[C@]12C [Ginsenoside Rd] | 0.67 | 5.9 ± 1.14
CC(C)=CCC[C@](C)(O[C@@H]1O[C@H](CO)[C@@H](O)[C@H](O)[C@H]1O)[C@H]1CC[C@]2(C)[C@@H]1[C@H](O)C[C@@H]1[C@@]3(C)CC[C@H](O)C(C)(C)[C@@H]3[C@@H](O[C@@H]3O[C@H](CO)[C@@H](O)[C@H](O)[C@H]3O[C@@H]3O[C@@H](C)[C@H](O)[C@@H](O)[C@H]3O)C[C@]12C [Ginsenoside Re] | 0.67 ± 0.06 | 7.33 ± 3.45
CC(C)=CCC[C@](C)(O[C@@H]1O[C@H](CO)[C@@H](O)[C@H](O)[C@H]1O)[C@H]1CC[C@]2(C)[C@@H]1[C@H](O)C[C@@H]1[C@@]3(C)CC[C@H](O)C(C)(C)[C@@H]3[C@@H](O[C@@H]3O[C@H](CO)[C@@H](O)[C@H](O)[C@H]3O)C[C@]12C [Ginsenoside Rg1] | 0.67 | 8.69 ± 3.17
O=C(/C=C/c1ccc(O)c2c1[C@H](C(=O)O)[C@@H](c1ccc(O)c(O)c1)O2)O[C@H](Cc1ccc(O)c(O)c1)C(=O)O [Lithospermic acid] | 0.67 | 4.8 ± 0.89
O=C(O)c1ccc(O)c(O)c1 [Protocatechuic acid] | 0.67 | 8.38 ± 1.02
O=c1c(O)c(-c2ccc(O)c(O)c2)oc2cc(O)cc(O)c12 [Quercetin] | 0.67 | 5.04 ± 0.98

same assay, conditions: rat plasma, QLQX suspension […] intragastrically, mean ± SD

Compound | Tmax | t1/2
CC(C)(O)C1CCC(C)(C2C(O)CC3(C)C4CC(OC5OC(CO)C(O)C(O)C5O)C5C(C)(C)C(OC6OCC(O)C(O)C6O)CCC56CC46CCC23C)O1 (centres unmarked) [Astragaloside] | 0.67 ± 0.00 | 5.74 ± 0.78
CCN1C[C@]2(COC)[C@H](O)C[C@H](OC)[C@@]34[C@@H]5C[C@@]6(O)[C@H](OC(=O)c7ccccc7)[C@@H]5[C@@](O)([C@@H]([C@H](OC)[C@H]23)[C@@H]14)[C@@H](O)[C@@H]6OC [Benzoylaconine] | 1.00 ± 0.00 | 18.63 ± 7.20
COC[C@@]12CC[C@H](OC)[C@]34C([C@H]([C@H](OC)[C@H]13)[C@]1(O)[C@H]3[C@@H](OC(=O)c5ccccc5)[C@](O)(C[C@H]34)[C@@H](OC)[C@@H]1O)N(C)C2 [Benzoylhypaconine] | 0.67 ± 0.00 | 12.88 ± 3.47
COC[C@]12CN(C)C3[C@@H]4[C@H](OC)[C@H]1[C@@]3([C@@H](OC)C[C@H]2O)[C@@H]1C[C@@]2(O)[C@H](OC(=O)c3ccccc3)[C@@H]1[C@]4(O)[C@@H](O)[C@@H]2OC [Benzoylmesaconine] | 0.67 ± 0.11 | 8.23 ± 2.02
COC[C@]12CN(C)[C@@H]3[C@@H]4[C@H](OC)[C@H]1[C@@]3([C@@H](OC)C[C@H]2O)[C@@H]1C[C@@]2(O)[C@H](OC(=O)c3ccccc3)[C@@H]1[C@]4(OC(C)=O)[C@@H](O)[C@@H]2OC [Mesaconitine] | 0.17 ± 0.06 | 6.23 ± 1.23

assay: in vivo; conditions: Sprague-Dawley, rat, po

Compound | Tmax [h] | half-life [h]
CC(C)=CCC[C@](C)(O[C@@H]1O[C@H](CO)[C@@H](O)[C@H](O)[C@H]1O)[C@H]1CC[C@]2(C)[C@@H]1[C@H](O)C[C@@H]1[C@@]3(C)CC[C@H](O[C@@H]4O[C@H](CO)[C@@H](O)[C@H](O)[C@H]4O)C(C)(C)[C@@H]3CC[C@]12C [Ginsenoside F2] | 0.67 | 6.23 ± 2.89
CC(C)=CCC[C@](C)(O)[C@H]1CC[C@]2(C)[C@@H]1[C@H](O)C[C@@H]1[C@@]3(C)CC[C@H](O)C(C)(C)[C@@H]3[C@@H](O[C@@H]3O[C@H](CO)[C@@H](O)[C@H](O)[C@H]3O[C@@H]3O[C@H](CO)[C@@H](O)[C@H](O)[C@H]3O)C[C@]12C [Ginsenoside Rf] | 0.67 | 6.12 ± 3.53
COC[C@@]12CC[C@H](OC)[C@]34C(C([C@H](OC)[C@H]13)[C@]1(OC(C)=O)[C@H]3[C@@H](OC(=O)c5ccccc5)[C@](O)(C[C@H]34)[C@@H](OC)[C@@H]1O)N(C)C2 [Hypaconitine] | 0.33 | 8.01 ± 2.39
O=C(/C=C/c1ccc(O)c(O)c1)O[C@H](Cc1ccc(O)c(O)c1)C(=O)O [Rosmarinic acid] | 0.67 | 5.28 ± 1.35
C[C@@H]1O[C@@H](OC[C@H]2O[C@@H](Oc3c(-c4ccc(O)c(O)c4)oc4cc(O)cc(O)c4c3=O)[C@H](O)[C@@H](O)[C@@H]2O)[C@H](O)[C@H](O)[C@H]1O [Rutin] | 0.33 | 5.33 ± 1.27
O=C(/C=C/c1ccc(O)c(O)c1/C=C/c1ccc(O)c(O)c1)O[C@H](Cc1ccc(O)c(O)c1)C(=O)O [Salvianolic acid A] | 0.17 | 7.5 ± 4.92
